# Source: US8946431B2, “2-(substituted ethynyl)quinoline derivatives as mGLUr5 antagonists” (Korea Institute of Science and Technology, priority 2013, dated 2015)
# Like-named read-outs stand apart in the source and are kept apart here. Marks after values point to notes of the source that are not given here.
# How the values were obtained:
# CYP2D6 = CYP2D6 (Homo sapiens, UniProt P10635); experiment: CYP inhibitory rate, CYP2D6; type: in vitro ADME
# [1] = rat
# [2] = system: SNL (spinal nerve ligation) neuropathic pain models; experiment: In vivo test in SNL (spinal nerve ligation) neuropathic pain models; settings: orally administered, SNL model, compared with gabapentin as control (FIG. 1 C, D)
# Source text: The compound prepared in Example 26 was subjected to an in vivo test as follows. […] Here, gabapentin was used as a control.
# mGluR5 [3] = molecular target: T1, mGluR5 (Homo sapiens, UniProt P41594); experiment: Inhibitory concentration (IC50) on mGluR5; type: cell-based
# T1 construct: host or cells: HEK293 (human embryonic kidney) cells stably expressing m-GluR5
# T1 sequence (P41594 21-1212): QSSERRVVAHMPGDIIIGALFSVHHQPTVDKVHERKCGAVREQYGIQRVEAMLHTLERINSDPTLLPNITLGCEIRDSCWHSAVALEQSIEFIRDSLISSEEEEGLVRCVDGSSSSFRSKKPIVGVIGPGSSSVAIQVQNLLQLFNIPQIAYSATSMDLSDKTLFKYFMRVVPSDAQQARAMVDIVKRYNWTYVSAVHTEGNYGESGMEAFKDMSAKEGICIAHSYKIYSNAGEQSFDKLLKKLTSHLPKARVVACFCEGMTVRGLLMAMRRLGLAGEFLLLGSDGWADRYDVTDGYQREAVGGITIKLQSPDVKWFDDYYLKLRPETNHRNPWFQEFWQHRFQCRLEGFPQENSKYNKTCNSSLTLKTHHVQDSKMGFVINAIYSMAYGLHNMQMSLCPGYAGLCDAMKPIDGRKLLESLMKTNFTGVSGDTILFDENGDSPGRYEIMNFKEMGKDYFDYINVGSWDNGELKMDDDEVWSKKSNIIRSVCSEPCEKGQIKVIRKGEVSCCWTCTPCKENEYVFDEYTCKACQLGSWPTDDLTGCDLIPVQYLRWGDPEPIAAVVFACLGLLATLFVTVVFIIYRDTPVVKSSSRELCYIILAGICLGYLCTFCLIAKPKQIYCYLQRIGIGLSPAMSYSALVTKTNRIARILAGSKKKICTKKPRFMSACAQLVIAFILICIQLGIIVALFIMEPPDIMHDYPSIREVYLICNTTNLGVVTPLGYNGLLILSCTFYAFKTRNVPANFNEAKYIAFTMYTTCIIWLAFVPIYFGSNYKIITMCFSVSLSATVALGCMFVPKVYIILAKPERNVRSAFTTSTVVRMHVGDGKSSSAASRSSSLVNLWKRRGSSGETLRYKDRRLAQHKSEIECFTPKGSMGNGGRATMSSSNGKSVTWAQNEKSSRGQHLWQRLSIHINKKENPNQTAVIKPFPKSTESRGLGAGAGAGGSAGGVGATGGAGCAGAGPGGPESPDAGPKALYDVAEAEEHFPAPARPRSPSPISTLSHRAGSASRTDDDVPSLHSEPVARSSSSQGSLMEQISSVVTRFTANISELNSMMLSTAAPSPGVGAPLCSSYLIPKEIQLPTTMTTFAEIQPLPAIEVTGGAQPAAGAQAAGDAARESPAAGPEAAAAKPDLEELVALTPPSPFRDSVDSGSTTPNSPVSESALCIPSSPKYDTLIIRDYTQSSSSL
# mGluR5 [4] = molecular target: T1, mGluR5; experiment: Assay for m-GluR5 activity using FDSS6000 (calcium mobilization by L-glutamate in mGluR5/HEK293 cells); type: cell-based; settings: HEK293, L-glutamate 10 uM, HEK cells expressing m-GluR5, read-out: % Inhibition rate (mGluR5)
# Procedure: Inhibitory activity (%) of the compound represented by Formula 1 on calcium mobilization developed at a high concentration of glutamate in mGluR5/HEK293 cells was measured by using a high throughput FDSS6000.
# After HEK cells stably expressing m-GluR5 (Human embryonic kidney cell line; m-GluR5: Yonsei University) were prepared at a density of 4×10^4/Ml per well, aliquots of 100 μl from the cell suspension were distributed evenly into a 96-well plate and incubated for 18 hr at 37° C., 5% CO2. The well plate was washed with a HBSS buffer to remove the culture medium, and reacted with a HBSS buffer containing a Ca^2+ fluorescent dye (FLIPR Calcium 5 assay kit: Molecular Devices) for 30 min at 37° C., 5% CO2, thereby labeling with the fluorescent dye. Separately from the 96-well plate including the cells, another 96-well plate including L-glutamate (final concentration: 10 uM) capable of activating m-GluR5 and a blacking agent was prepared. Since most of cell-based HTS devices are equipped with a liquid application system for injection of a drug, but have no liquid sucking system, the blocking agent to be tested and L-glutamate were respectively provided at a 6-fold higher concentration in a HBSS buffer at the amount of 25 μl, diluted by six-times at the final cell plate volume of 150 μl, and then used in this assay. Briefly, the FDSS6000 assay was carried out by recording a reference level of 20 sec, pre-treating with a blocking agent for 75 sec, and then measuring the change in intracellular calcium level depending on the administration of L-glutamate. After the area of a 480/520 ratio value in a control without treatment of a test drug was set to 100%, an inhibitory effect of the test drug was calculated as a percentage (%) thereon.
# For accurate calcium imaging, the light source of 4 xenon lamps in FDSS6000 were radiated to selectively expose the cells to the excitation wavelength (480 nm) by a computer-controlled filter wheel. Data were obtained at intervals of 1.23 sec. The emitter fluorescence light inflowed through a 520 nm long-pass filter was obtained as an average 480/520 ratio value for each well in the 96-wells by using a CCD camera and a digital fluorescence analyzer in FDSS6000. All image data and analyses were obtained by using a FDSS6000-exclusive program from Hamamatsu Photonics.
# CYP3A4 = CYP3A4 (Homo sapiens, UniProt P08684); experiment: CYP inhibitory rate, CYP3A4; type: in vitro ADME
# Sequence of CYP3A4 (P08684 whole entry): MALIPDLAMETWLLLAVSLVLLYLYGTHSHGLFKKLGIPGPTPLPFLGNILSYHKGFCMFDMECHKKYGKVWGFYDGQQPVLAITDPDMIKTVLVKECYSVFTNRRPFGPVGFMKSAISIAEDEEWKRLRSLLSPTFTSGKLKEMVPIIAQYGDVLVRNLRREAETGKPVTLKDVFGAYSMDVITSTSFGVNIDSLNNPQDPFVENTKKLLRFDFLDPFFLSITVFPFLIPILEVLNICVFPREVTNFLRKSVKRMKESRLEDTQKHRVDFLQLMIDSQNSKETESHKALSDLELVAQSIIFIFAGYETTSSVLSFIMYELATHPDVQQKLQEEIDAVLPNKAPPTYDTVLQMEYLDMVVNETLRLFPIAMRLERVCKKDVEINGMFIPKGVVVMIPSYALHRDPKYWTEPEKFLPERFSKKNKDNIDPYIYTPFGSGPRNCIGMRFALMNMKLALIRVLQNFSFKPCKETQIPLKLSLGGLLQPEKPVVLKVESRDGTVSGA
# [5] = HLM (human liver microsomal) stability; type: in vitro ADME; settings: human liver microsomes
# CYP2C9 = CYP2C9 (Homo sapiens, UniProt P11712); experiment: CYP inhibitory rate, CYP2C9; type: in vitro ADME
# Sequence of CYP2C9 (P11712 whole entry): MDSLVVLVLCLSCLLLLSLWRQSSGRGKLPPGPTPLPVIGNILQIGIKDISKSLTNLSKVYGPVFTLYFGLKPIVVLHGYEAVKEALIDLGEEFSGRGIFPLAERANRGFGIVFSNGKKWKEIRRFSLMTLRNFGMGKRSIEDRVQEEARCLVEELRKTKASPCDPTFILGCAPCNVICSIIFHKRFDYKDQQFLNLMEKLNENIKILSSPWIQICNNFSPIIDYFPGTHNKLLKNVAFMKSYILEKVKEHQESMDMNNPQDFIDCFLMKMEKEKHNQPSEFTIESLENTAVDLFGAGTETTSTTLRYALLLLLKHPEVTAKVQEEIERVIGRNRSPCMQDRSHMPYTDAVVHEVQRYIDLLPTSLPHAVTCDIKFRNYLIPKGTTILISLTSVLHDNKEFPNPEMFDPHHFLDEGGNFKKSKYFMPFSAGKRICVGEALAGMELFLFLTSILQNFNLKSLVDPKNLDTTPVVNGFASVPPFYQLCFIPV
# hERG = hERG (Homo sapiens, UniProt Q12809); experiment: Inhibitory concentration (IC50) on hERG
# Sequence of hERG (Q12809 whole entry): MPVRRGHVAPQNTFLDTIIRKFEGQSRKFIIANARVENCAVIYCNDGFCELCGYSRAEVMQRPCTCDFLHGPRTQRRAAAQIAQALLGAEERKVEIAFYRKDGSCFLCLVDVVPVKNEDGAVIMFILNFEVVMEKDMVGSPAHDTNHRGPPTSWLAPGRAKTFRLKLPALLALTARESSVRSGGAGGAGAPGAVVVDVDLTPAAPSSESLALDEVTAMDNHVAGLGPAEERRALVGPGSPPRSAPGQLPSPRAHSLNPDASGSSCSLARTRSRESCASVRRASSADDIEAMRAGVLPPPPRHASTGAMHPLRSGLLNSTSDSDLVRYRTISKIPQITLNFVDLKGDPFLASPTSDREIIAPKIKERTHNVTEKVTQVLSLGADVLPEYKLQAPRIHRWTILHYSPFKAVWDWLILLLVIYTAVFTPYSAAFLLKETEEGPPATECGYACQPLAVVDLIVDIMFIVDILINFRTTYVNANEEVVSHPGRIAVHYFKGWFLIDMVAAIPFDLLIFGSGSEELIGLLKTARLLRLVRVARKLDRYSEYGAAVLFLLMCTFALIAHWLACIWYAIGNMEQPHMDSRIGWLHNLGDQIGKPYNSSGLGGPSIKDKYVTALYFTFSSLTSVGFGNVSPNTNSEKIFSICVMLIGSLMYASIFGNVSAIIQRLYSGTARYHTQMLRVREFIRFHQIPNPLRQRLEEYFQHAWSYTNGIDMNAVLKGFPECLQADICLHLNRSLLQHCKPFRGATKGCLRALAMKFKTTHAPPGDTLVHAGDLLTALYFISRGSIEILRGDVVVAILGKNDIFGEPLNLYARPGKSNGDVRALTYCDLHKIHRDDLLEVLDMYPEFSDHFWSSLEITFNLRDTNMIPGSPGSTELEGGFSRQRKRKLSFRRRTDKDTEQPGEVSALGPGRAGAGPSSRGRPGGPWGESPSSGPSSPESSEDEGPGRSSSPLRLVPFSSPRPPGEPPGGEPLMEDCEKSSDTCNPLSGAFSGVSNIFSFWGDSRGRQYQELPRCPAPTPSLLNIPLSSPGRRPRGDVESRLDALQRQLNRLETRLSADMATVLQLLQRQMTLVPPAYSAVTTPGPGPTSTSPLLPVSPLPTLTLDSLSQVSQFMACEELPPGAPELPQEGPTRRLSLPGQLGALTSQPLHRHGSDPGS
# Sequence of CYP2D6 (P10635 whole entry): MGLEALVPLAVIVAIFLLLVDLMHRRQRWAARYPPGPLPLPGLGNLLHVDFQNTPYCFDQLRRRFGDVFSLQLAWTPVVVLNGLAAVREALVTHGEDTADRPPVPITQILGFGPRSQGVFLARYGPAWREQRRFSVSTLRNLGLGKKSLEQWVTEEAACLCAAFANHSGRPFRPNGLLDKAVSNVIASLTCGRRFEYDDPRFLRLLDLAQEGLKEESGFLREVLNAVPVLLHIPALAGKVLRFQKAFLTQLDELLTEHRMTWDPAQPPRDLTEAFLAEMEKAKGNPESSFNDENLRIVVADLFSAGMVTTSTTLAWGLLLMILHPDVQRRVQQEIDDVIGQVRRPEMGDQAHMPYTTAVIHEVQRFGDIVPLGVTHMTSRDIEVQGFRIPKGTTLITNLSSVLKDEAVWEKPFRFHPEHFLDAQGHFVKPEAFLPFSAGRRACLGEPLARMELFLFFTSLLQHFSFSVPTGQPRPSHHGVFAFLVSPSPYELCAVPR
compound,measurement,setting,value
"C(#Cc1ccc2ccccc2n1)c1ccccn1 [Example 26, 2-(Pyridine-2-ylethynyl)quinoline]",CYP (% remaining @ 10 μM) CYP2D6,CYP2D6,98%
same,CL,[1]; intravenous injection (n=4),84.93 (±8.98) mL/min/kg
same,T1/2,[1]; intravenous injection (n=4),58.24 (±62.41) min
same,Vdss,[1]; intravenous injection (n=4),1269.02 (±158.55) mL/kg
same,F,[1]; oral administration,15.9%
same,Cmax,[1]; oral administration (n=3),0.43 (±0.18) μg/mL
same,T1/2,[1]; oral administration (n=3),48.53 (±8.06) min
same,Tmax,"[1]; oral administration (n=3), median value (range)",10 (5-30)^a min
same,inhibitory effect on cold allodynia,[2],higher inhibitory effect
same,IC50,mGluR5 [3],0.94 ± 0.25 µM
same,inhibition at 1 µM,mGluR5 [4]; 1 μM compound,58.8%
same,inhibition at 10 µM,mGluR5 [4]; 10 μM compound,76.7%
same,CYP (% remaining @ 10 μM) CYP3A4,CYP3A4,77%
same,HLM % remaining after 30 min,[5],88%
same,CYP (% remaining @ 10 μM) CYP2C9,CYP2C9,>99%
same,IC50,hERG,20.3 ± 6.11 µM
